In article PMC5118774 (Frontiers in Pharmacology, 2016):
Entries after “also recorded” stand apart in the source; their conditions may differ.

Assays:
[1] = Plasma protein and brain tissue binding, rapid equilibrium dialysis; type: in vitro ADME, mouse
Text: The rapid equilibrium dialysis assay used to determine free fraction of α5-PAM in mouse plasma and brain tissue was the same as in [Obradovic et al. (2014)].

α5 protein = assay: Total and surface α5 protein, surface biotinylation and Western blotting; type: in vivo, C57BL/6J mice; conditions: acute or chronic treatment
Experimental: Dissected hippocampi were processed as described in [Pabba et al. (2014)] with minor modifications.
The following antibodies and their dilutions were used in this study: rabbit polyclonal anti-α5 (1:750; Thermo Fisher Scientific, Waltham, MA, USA), rabbit monoclonal anti-β1-[…] (NK-ATPase) (1:1000; Abcam, Cambridge, MA, USA), and mouse monoclonal anti-β-actin (1:100; Abcam, Cambridge, MA, USA).
Western blotting was performed using 5 μg of protein resolved on 8% SDS-PAGE and transferred onto PVDF membranes and developed using IR-Dye conjugated secondary antibody and detection using LI-COR (NE, USA). Quantification of bands was performed using Image Studio^TM Software (LI-COR, NE, USA). We analyzed α5 surface biotinylation in vehicle versus drug treated mice (N = 6 females and 4 males per group). Total α5 band intensities were normalized to β-actin, whereas surface α5 band intensities were normalized to NK-ATPase.

[2] = tested on: mice exposed to unpredictable chronic mild stress (UCMS); assay: Cookie test after UCMS; type: in vivo, C57BL/6J mice
Text: Mice underwent between 6 and 8 weeks of UCMS (see Supplementary Table S1 for example UCMS schedule). Animals were exposed to 2–3 mild stressors each day throughout the light/dark cycle, including wet bedding, brief restraint, forced bath, no bedding, reduced space, and predator odor over a period of several weeks (see details in Supplementary Material) ([Edgar et al., 2011]; [Lin and Sibille, 2015]). Female mice were housed 5 per cage, and male mice were housed 4 per cage in Optimice cages (Animal Care Systems Inc, Centennial, CO, USA). In experiment 3.4, UCMS was augmented with single-cage isolation housing in male mice beginning at the fourth week of UCMS until sacrifice. A timeline of experimental procedures can be found in Figure 2A (including timeline of the sections “ Drug Treatment” and “Behavioral Testing”).
At the start of the third week of UCMS and continuing for between 28 and 42 days (including time for behavioral tests, see “Behavioral Testing”) until sacrifice, mice received daily i.p injections of vehicle (85% ddH2O, 14% propylene glycol, 1% Tween 80) or 30 mg/kg SH-053-2’F-R-CH3 (α5-PAM; synthesized in the laboratory of Dr. James M. Cook) in a volume of […]. All animals received a single daily injection (chronic α5-PAM treated mice received SH-053-2’F-R-CH3, acute α5-PAM and vehicle treated animals received vehicle injections) between 8:00AM and 9:00AM until the start of behavioral testing. After 3 weeks of treatment, all mice began receiving a second injection 30 min prior to behavioral testing. All animals received a second injection of either vehicle (for chronic α5-PAM treated animals and UCMS-vehicle treated animals) or α5-PAM acutely (α5-PAM acute animals). All injections were performed using ultra-fine insulin syringes (31 gauge, 6 mm; Becton, Dickinson and Company, Franklin Lakes, NJ, USA).
After 5 weeks of UCMS, including 3 weeks of drug treatment, animals were assessed in a battery of behavioral tests (each test separated by 48 h, UCMS continued throughout behavioral testing for a period of 1–3 weeks). These tests included: Elevated plus maze: under red light, animals were placed on a plus maze with two open and two closed arms (30 cm × 5 cm). Number of entries into all arms as well as the time spent in the open arms was recorded for 10 min. Open field test: The open field test was conducted in a 43 cm ×43 cm arena under bright (800 lux) light. Using AnyMaze software (Stoelting, Wood Dale, IL, USA), the center 50% of the arena was identified and animals were tracked for 10 min. Novelty suppressed feeding test: Mice were food deprived for 24 h the day before testing. Testing occurred in brightly lit (∼1000 lux) open field arenas covered in bedding. A normal food pellet was placed into the brightly lit center and the latency for an animal to approach and bite the pellet was recorded over a 12 min session. Immediately following the session, animals were placed into their home cage and allowed to eat a weighed food pellet to assess hunger drive. Cookie test: The cookie test apparatus contains three identically sized chambers (40 cm × 20 cm × 20 cm) separated by two offset dividers. The outer walls of each chamber were clear and the only difference between each was the color of the divider, with one divider shaded white and the other black. One week prior to experimentation, mice were habituated in their home cage to a piece (2 ± 1 g) of Keebler Fudge Stripe Cookie (Kellogg’s Company, Battle Creek, MI, USA). On the first and second day of testing, a piece of cookie (2 ± 1 g) was placed into the chamber separated by the black divider. Mice were then placed into the opposing chamber separated by the white divider and monitored for 10 min. The latency for each mouse to bite the cookie was recorded. […]

Gabra5 = Gabra5 transcript expression by qPCR in prelimbic cortex and hippocampus; type: in vivo, C57BL/6J mice
Experimental: Twenty-four hours after the final behavioral test, mice were injected with either an acute dose of α5-PAM or vehicle 30 min prior to rapid perfusion (2 ml 4%PFA). Brains were rapidly dissected and flash frozen on dry ice. 160 μm thick coronal sections were obtained using a cryostat. The prelimbic cortex and dorsal hippocampus were dissected with a 1 mm diameter micropunch and tissue samples were then frozen at -80°C. Total RNA was extracted with an RNAeasy FFPE kit (Qiagen, Germantown, MD, USA) and tested for purity on a NanoDrop Spectrophotometer (260/280 ≥ 1.9). RNA concentration and integrity (RIN > 7) were then assessed using the Agilent RNA6000 Pico-Kit and Agilent 2100 Bioanalyzer (Agilent Technologies, Santa Clara, CA, USA).
Approximately 90 ng of total RNA was used to generate cDNA via the qScript^TM cDNA Supermix synthesis kit (Quanta Biosciences, Gaithersburg, MD, USA). Real-time quantitative polymerase chain (qPCR) reactions were carried out using SYBR green fluorescence signal (Invitrogen, Carlsbad, CA, USA) and an Opticon Monitor DNA Engine (Bio-Rad, Berkeley, CA, USA). Gene of interest was the α5-subunit of the GABAA receptor (Gabra5). Samples were run in triplicate and ΔCt values were calculated by comparing the Ct values of Gabra5 to the geometric mean of two reference genes, β-Actin and glyceraldehyde 3-phosphate dehydrogenase (Gapdh). Arbitrary signal intensity was calculated as 2^-ΔCt∗10,000.

C#Cc1ccc2c(c1)C(c1ccccc1F)=N[C@H](C)c1c(C(=O)OCC)ncn1-2 [α5-PAM]
free fraction, brain tissue ([1]; mouse brain tissue): 2.73% | free fraction, plasma ([1]; mouse plasma): 7.44% | total or surface α5 protein expression, hippocampus (α5 protein; female UCMS mice): no difference; also recorded: No significant effect | total or surface α5 protein expression, hippocampus (α5 protein; male UCMS mice): no difference; also recorded: No significant effect | cookie test latency to bite the cookie ([2]; female UCMS mice, acute 30 mg/kg i.p., first cohort (Figure 2)): a trend in the same direction | cookie test latency to bite the cookie ([2]; female UCMS mice, acute treatment, vs UCMS-vehicle, second cohort (Figure 3)): reduces the latency to bite; also recorded: significantly reduced the latency to bite | cookie test latency to bite the cookie ([2]; female UCMS mice, chronic 30 mg/kg i.p., first cohort (Figure 2)): reduced the latency to bite; also recorded: significant decrease | cookie test latency to bite the cookie ([2]; female UCMS mice, chronic treatment, vs UCMS-vehicle, second cohort (Figure 3)): reduces the latency to bite; also recorded: significantly reduced the latency to bite | cookie test, stress-induced behavior ([2]; male UCMS mice, 37.5 mg/kg acute or chronic (Figure 4B), 37.5 mg/kg): No change; also recorded: failed to reduce | cookie test latency to bite the cookie ([2]; male UCMS mice, acute or chronic 30 mg/kg i.p., first cohort (Figure 2)): No significant effect; also recorded: No significant difference | cookie test, UCMS-induced behavioral phenotype ([2]; male mice, UCMS plus single housing, chronic treatment (Figure 4A)): did not alter; also recorded: No significant effect | Gabra5 (α5) transcript expression, prelimbic cortex (Gabra5; female UCMS mice, acute treatment): significantly increased; also recorded: increases | Gabra5 (α5-subunit) transcript expression, hippocampus (Gabra5; female UCMS mice, chronic treatment): increases | Gabra5 gene expression (Gabra5; male UCMS mice, acute or chronic treatment, prelimbic cortex and hippocampus): No change | Gabra5 (α5) transcript expression, prelimbic cortex (Gabra5; male or female UCMS mice, chronic treatment): No effect
